Like-named read-outs stand apart in the source and are kept apart here. Some results are limits rather than exact numbers.

The target in one data set is Abl (h) (Homo sapiens, UniProt P00519). Put plainly: Abl human kinase assay (glass-fiber filter). Format: biochemical. The settings on record: test concentration of 10^−6M; read-out: C1 score (inhibition of Abl human).
The target of the next data set is Lyn (h) (Homo sapiens, UniProt P07948). Put plainly: Lyn human kinase assay (glass-fiber filter). It is filed as biochemical. The settings on record: test concentration of 10^−6M; read-out: C10 score (inhibition of Lyn human). In short, it runs like this: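 Human Lyn (5-10 mU) phosphorylating poly(Glu,Tyr) 4:1 at 0.1 mg/ml with [γ-33P]ATP (concentration as required) in 50 mM Tris pH 7.5, 10 mM Mg acetate, 40 min at room temperature. Stopped with phosphoric acid; substrate-bound radioactivity counted on glass-fibre filter.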

A further data set concerns the target Fms (h) (Homo sapiens, UniProt P07333). Put plainly: Fms human kinase assay (glass-fiber filter). Format: biochemical. The settings on record: test concentration of 10^−6M; read-out: C7 score (inhibition of Fms human). In short, it runs like this:
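Radiometric filter-binding assay: Fms (5-10 mU) with 250 μM peptide substrate and [γ-33P]ATP in 8 mM MOPS pH 7.0, 10 mM Mg acetate, 40 min at room temperature. Reaction stopped with phosphoric acid; substrate-bound 33P counted on P30 filtermat.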

Another data set has as its target CSK (h) (Homo sapiens, UniProt P41240). Put plainly: CSK human kinase assay (glass-fiber filter). Format: biochemical. The settings on record: test concentration of 10^−6M; read-out: C2 score (inhibition of CSK human). How it is done:
In the glass-fiber filter technology the activity of the kinase of interest is measured using an appropriate substrate that is incubated with the aforementioned kinase protein in the presence of (^33P) radiolabeled ATP. (^33P) Phosphorylation of the substrate is subsequently measured as radioactivity bound on a glass fiber-filter.
All kinases are pre-diluted to a 10× working concentration prior to addition into the assay. The composition of the dilution buffer for each kinase is detailed below.
In a final reaction volume of 25 μl, CSK (h) (5-10 mU) is incubated with 50 mM Tris pH 7.5, 0.1 mM EGTA, 0.1 mM Na3VO4, 0.1% β-mercaptoethanol, 0.1 mg/ml poly(Glu, Tyr) 4:1, 10 mM MnCl2, 10 mM MgAcetate and [γ-^33P-ATP] (specific activity approx. 500 cpm/pmol, concentration as required). The reaction is initiated by the addition of the MgATP mix. After incubation for 40 minutes at room temperature, the reaction is stopped by the addition of 5 μl of a 3% phosphoric acid solution. 10 μl of the reaction is then spotted onto a Filtermat A and washed three times for 5 minutes in 75 mM phosphoric acid and once in methanol prior to drying and scintillation counting.

The target in the next data set is EGFR (h) (Homo sapiens, UniProt P00533). Put plainly: EGFR human kinase assay (glass-fiber filter). Format: biochemical. The settings on record: test concentration of 10^−6M; read-out: C4 score (inhibition of EGFR human). In short, it runs like this:
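Human EGFR (5-10 mU) phosphorylated 0.1 mg/ml poly(Glu, Tyr) 4:1 in 8 mM MOPS pH 7.0, 0.2 mM EDTA, 10 mM MnCl2, 10 mM MgAcetate with [γ-33P]ATP at unspecified concentration. Incubation lasted 40 minutes at room temperature, was stopped with phosphoric acid, and filter-bound 33P was counted by scintillation.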

The conditions of data set [1]: amide bond, DMF, 25.0 °C.
Another data set deals with Yes (h) (Homo sapiens, UniProt P07947). Put plainly: Yes human kinase assay (glass-fiber filter). Format: biochemical. The settings on record: test concentration of 10^−6M; read-out: C11 score (inhibition of Yes human). In short, it runs like this: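 Yes (h) (5-10 mU) with 0.1 mg/ml poly(Glu, Tyr) 4:1 in 8 mM MOPS pH 7.0, 0.2 mM EDTA, 10 mM MgAcetate and [γ-^33P-ATP], 40 minutes at room temperature. Stopped with phosphoric acid; substrate-bound ^33P counted on glass-fiber filter by scintillation.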

The target of another data set is cSRC (h) (Homo sapiens, UniProt P12931). Put plainly: cSRC human kinase assay (glass-fiber filter). It is filed as biochemical. The settings on record: test concentration of 10^−6M; read-out: C3 score (inhibition of cSRC human). In short, it runs like this: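 Radiometric assay: kinase and substrate are incubated with [33P]ATP, with the reaction started by MgATP mix. The reaction is spotted on P30 filtermat, washed in 75 mM phosphoric acid and methanol, and the bound 33P is measured by scintillation counting.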

The next data set has as its target Lck (h) (Homo sapiens, UniProt P06239). Put plainly: Lck human kinase assay (glass-fiber filter). It is filed as biochemical. The settings on record: test concentration of 10^−6M; read-out: C9 score (inhibition of Lck human). A digest of the protocol:
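Kinase activity measured as transfer of (^33P) from radiolabeled MgATP to substrate, captured on P30 glass-fiber filtermat, washed in 75 mM phosphoric acid and methanol, then scintillation counted.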

A further data set concerns the target Flt3 (h) (Homo sapiens, UniProt P36888). Put plainly: Flt3 human kinase assay (glass-fiber filter). Format: biochemical. The settings on record: test concentration of 10^−6M; read-out: C6 score (inhibition of Flt3 human). In short, it runs like this:
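Human Flt3 (5-10 mU) with 50 μM peptide substrate in 8 mM MOPS pH 7.0, 0.2 mM EDTA, 10 mM Mg acetate and [γ-33P]ATP (concentration as required), 40 min at room temperature. Reaction stopped with phosphoric acid; substrate 33P incorporation counted on P30 glass-fiber filter.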

A further data set deals with Fes (h) (Homo sapiens, UniProt P07332). Put plainly: Fes human kinase assay (glass-fiber filter). It is filed as biochemical. The settings on record: test concentration of 10^−6M; read-out: C4 score (inhibition of Fes human). In short, it runs like this: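 Human Fes (5–10 mU) was incubated with 0.1 mg/ml poly(Glu,Tyr) 4:1 in 8 mM MOPS pH 7.0, 0.2 mM EDTA, 10 mM Mg acetate and [γ-33P]ATP for 40 min at room temperature. The reaction was stopped with phosphoric acid, and substrate phosphorylation was quantified by filter binding and scintillation counting.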

Sequence of Yes (h) (P07947 whole entry): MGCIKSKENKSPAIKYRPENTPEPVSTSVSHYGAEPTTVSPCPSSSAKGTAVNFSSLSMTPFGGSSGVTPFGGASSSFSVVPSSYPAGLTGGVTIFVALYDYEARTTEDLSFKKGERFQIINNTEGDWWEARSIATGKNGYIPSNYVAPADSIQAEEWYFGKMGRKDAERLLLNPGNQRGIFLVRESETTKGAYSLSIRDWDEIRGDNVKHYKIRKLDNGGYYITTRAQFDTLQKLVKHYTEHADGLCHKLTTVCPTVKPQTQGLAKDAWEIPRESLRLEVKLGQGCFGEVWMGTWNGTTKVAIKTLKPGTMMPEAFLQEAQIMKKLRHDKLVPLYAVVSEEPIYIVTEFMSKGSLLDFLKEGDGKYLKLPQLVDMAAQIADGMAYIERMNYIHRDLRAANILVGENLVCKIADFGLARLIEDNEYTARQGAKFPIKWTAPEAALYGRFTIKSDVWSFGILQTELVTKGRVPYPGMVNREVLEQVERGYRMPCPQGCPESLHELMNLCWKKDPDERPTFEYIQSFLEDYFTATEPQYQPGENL
Sequence of EGFR (h) (P00533 25-1210): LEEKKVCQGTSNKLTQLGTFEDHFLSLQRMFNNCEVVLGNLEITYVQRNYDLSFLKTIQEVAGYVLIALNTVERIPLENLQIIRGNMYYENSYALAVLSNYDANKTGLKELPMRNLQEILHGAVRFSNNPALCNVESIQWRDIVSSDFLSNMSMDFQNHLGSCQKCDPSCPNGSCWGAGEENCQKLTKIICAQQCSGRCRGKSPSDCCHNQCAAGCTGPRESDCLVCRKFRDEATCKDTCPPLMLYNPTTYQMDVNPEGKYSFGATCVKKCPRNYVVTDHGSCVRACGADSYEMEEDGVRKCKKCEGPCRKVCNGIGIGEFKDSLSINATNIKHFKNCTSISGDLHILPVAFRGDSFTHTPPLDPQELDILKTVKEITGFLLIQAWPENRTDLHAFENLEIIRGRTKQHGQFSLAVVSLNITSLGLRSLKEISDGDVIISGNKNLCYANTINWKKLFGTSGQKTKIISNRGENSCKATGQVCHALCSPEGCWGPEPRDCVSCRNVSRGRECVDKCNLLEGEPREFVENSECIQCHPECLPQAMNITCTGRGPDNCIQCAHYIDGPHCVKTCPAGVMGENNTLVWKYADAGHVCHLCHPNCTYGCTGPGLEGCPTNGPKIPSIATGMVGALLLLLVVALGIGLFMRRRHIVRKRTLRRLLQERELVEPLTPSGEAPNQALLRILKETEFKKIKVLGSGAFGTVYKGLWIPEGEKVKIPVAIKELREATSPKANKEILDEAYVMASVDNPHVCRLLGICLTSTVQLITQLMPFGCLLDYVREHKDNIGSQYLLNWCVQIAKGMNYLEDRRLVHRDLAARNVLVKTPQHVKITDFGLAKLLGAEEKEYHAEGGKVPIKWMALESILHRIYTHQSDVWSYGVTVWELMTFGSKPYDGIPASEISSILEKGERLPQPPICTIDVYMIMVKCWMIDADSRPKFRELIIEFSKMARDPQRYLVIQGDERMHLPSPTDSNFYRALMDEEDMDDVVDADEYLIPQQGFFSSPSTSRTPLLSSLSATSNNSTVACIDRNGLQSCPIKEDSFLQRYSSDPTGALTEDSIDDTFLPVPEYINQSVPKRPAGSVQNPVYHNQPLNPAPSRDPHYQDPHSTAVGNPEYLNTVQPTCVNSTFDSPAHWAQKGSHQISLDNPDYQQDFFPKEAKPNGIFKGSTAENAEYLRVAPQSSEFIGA
Sequence of Lck (h) (P06239 whole entry): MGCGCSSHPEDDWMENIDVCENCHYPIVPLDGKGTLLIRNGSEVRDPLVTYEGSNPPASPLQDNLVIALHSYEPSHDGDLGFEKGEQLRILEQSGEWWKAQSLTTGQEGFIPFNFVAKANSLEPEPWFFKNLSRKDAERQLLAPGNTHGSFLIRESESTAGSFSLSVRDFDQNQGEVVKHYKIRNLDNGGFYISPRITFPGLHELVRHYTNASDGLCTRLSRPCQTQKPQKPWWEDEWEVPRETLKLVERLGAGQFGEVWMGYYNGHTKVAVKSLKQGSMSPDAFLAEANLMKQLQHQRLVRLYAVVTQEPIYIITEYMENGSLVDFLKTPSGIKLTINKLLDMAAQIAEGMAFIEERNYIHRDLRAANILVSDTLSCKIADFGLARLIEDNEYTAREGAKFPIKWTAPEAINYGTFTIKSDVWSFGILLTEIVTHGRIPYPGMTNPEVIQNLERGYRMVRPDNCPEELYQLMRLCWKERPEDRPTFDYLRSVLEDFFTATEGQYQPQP
Sequence of Fms (h) (P07333 20-972): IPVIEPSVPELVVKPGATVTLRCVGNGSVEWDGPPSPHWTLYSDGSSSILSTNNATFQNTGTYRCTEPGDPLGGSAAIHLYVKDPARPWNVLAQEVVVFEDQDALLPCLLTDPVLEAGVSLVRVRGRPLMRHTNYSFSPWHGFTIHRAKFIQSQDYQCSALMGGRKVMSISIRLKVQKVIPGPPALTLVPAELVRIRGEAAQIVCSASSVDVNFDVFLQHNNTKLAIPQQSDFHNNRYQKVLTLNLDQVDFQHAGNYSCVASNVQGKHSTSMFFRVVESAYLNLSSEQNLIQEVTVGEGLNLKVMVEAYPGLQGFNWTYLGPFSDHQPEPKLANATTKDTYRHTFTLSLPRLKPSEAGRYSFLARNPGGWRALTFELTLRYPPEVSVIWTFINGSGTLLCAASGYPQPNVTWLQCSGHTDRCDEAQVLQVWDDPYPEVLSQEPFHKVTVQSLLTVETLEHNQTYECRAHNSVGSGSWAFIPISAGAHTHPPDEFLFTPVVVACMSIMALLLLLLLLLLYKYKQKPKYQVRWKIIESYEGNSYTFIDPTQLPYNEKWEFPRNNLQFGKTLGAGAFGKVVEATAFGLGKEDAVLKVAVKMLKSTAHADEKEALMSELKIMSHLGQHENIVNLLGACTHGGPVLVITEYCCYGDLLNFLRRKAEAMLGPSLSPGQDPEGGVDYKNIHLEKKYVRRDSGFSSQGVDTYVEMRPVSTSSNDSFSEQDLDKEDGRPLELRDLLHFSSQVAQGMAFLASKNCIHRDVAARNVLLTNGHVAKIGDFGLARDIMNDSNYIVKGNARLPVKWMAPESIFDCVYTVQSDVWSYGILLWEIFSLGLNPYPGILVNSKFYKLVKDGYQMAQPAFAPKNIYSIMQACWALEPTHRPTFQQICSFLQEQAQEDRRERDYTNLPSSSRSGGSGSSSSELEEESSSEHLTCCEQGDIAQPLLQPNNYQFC
Sequence of cSRC (h) (P12931 whole entry): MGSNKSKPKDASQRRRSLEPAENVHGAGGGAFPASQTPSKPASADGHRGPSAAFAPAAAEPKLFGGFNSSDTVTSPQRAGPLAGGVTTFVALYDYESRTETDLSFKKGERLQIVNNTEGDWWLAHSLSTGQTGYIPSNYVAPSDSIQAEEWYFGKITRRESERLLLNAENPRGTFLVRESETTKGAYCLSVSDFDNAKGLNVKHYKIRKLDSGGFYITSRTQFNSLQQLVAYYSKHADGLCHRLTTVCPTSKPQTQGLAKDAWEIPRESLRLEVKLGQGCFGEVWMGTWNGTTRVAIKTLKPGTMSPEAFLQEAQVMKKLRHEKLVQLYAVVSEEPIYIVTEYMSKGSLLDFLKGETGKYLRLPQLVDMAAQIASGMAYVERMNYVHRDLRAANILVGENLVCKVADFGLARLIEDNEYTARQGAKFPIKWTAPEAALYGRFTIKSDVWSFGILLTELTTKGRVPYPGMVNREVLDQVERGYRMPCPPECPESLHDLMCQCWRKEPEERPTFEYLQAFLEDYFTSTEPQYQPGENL
Sequence of CSK (h) (P41240 whole entry): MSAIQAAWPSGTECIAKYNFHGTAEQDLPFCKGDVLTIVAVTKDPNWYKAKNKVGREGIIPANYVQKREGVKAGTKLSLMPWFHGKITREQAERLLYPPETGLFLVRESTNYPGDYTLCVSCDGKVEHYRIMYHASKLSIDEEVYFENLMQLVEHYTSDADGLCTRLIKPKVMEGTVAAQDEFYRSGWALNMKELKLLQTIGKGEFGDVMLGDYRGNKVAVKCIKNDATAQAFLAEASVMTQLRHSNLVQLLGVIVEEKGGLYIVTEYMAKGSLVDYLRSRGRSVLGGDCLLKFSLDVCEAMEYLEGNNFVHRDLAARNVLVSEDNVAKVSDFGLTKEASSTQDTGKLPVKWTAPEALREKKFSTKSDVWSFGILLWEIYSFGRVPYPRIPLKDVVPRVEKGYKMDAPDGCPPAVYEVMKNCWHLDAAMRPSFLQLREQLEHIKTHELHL
Sequence of Lyn (h) (P07948 whole entry): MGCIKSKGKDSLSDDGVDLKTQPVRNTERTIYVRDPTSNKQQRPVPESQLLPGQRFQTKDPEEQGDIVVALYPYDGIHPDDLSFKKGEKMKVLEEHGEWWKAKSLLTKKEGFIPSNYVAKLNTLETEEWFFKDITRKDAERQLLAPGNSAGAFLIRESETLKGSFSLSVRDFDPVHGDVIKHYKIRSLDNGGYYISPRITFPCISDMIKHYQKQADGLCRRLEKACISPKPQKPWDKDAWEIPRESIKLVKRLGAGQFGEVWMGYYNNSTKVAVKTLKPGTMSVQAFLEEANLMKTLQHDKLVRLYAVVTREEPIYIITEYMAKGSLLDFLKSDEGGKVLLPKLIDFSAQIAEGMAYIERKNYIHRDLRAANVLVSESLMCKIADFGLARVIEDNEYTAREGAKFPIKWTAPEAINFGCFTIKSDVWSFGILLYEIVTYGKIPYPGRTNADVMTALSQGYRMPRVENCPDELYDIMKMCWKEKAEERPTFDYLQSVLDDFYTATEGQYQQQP

Regarding `O=C1NCCCCCCNC(=O)c2cccc(c2)Nc2cc(ncn2)Nc2cccc1c2` [Compound 8, 2,4,6,8,15,22-hexaazatetracyclo[22.3.1.1˜3,7˜.1˜9,13˜]triaconta-1(28),3,5,7(30),9,11,13(29),24,26-nonaene-14,23-dione], the melting point (usually the temperature of the solid-liquid transition) was 307 °C. In addition, on Abl (h), the inhibition (usually the drop in the measured response relative to a control, in per cent) at 1 µM was in the range of 10 to 30%. For the same molecule, the inhibition at 1 µM on Lyn (h) lay in the range of 10 to 30%. Also, at Fms (h), the inhibition at 1 µM lay within 30 to 60%. For the same molecule, on CSK (h), the inhibition at 1 µM was in the range of 10 to 30%. Also, the inhibition at 1 µM on EGFR (h) lay in the range of 10 to 30%. In data set [1] (from NCCCCCCNC(=O)c1cccc(Nc2cc(Nc3cccc(C(=O)O)c3)ncn2)c1, PyBOP, 3.45 mM, 1.5 h), this molecule had a ring closure, yield of all isomers of 33.7%. On Yes (h), the inhibition at 1 µM was 10 to 30%.
`COc1ccc2cc1OCCCNCCOc1ccc(Cl)cc1Nc1cc(ncn1)N2` [Compound 13, 1H,7H-6,2:8,12-dimetheno-13,20,1,3,5,7,17-benzodioxapentaazacyclodocosine, 23-chloro-14,15,16,17,18,19-hexahydro-11-methoxy-] displayed a melting point greater than 260 °C. Also, the inhibition at 1 µM at Abl (h) lay in the range of 10 to 30%. Also, the inhibition at 1 µM at cSRC (h) was 10 to 30%. Besides, the inhibition at 1 µM on Lyn (h) was greater than 80%. The inhibition at 1 µM on EGFR (h) is greater than 80%. In addition, the inhibition at 1 µM on Yes (h) was greater than 80%. In addition, the inhibition at 1 µM on Lck (h) was 30 to 60%.
Consider `N#Cc1cnc2nc1Nc1cccc(c1)C(=O)NCCOc1cccc(c1)N2` [Compound 3, 18-oxa-2,4,8,15,25-pentaazatetracyclo[17.3.1.1˜3,7˜.1˜9,13˜]pentacosa-1(23),3,5,7(25),9,11,13(24),19,21-nonaene-6-carbonitrile, 14-oxo-], for which the melting point is greater than 260 °C. For the same molecule, on cSRC (h), the inhibition at 1 µM is 10 to 30%. Further, the inhibition at 1 µM on Fms (h) lay in the range of 30 to 60%. Further, on CSK (h), the inhibition at 1 µM lay in the range of 10 to 30%. In data set [1] (from N#Cc1cnc(Nc2cccc(OCCN)c2)nc1Nc1cccc(C(=O)O)c1, HBTU, 4.0 mM, 17.0 h), this molecule returned a ring closure, yield of all isomers of 15%. Further, the inhibition at 1 µM at Flt3 (h) fell in the range of 30 to 60%. At Fes (h), the inhibition at 1 µM fell in the range of 10 to 30%. Moreover, on Yes (h), the inhibition at 1 µM lay within 10 to 30%. On Lck (h), the inhibition at 1 µM was in the range of 10 to 30%.

The values above are taken from patent publication US8148388B2, “2,4 (4,6) pyrimidine derivatives” (Janssen Pharmaceutica, N.V., priority 2004, dated 2012).
